# Tests used:
# Assay in all cases: cells
# CAL-72 = type: functional, cell-based, Homo sapiens; conditions: Homo sapiens, CAL-72;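 further: cell viability assay measuring inhibition of proliferation in the CAL-72 cell line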
# Description: SANGER: Inhibition of human CAL-72 cell growth in a cell viability assay.
# NCI-H2052 = type: functional, cell-based, Homo sapiens; conditions: Homo sapiens, NCI-H2052;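 further: growth inhibition of NCI-H2052 cells, read out with a cell viability assay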
# Description: SANGER: Inhibition of human NCI-H2052 cell growth in a cell viability assay.
# SBC-5 = type: functional, cell-based, Homo sapiens; conditions: Homo sapiens, SBC-5;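 further: cell viability assay read-out, IC50 is the concentration that inhibits growth of the cells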
# Description: SANGER: Inhibition of human SBC-5 cell growth in a cell viability assay.
# ONS-76 = type: functional, cell-based, Homo sapiens; conditions: Homo sapiens, ONS-76;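 further: growth inhibition of human ONS-76 cells, read out with a cell viability assay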
# Description: SANGER: Inhibition of human ONS-76 cell growth in a cell viability assay.
# NCI-H1651 = type: functional, cell-based, Homo sapiens; conditions: Homo sapiens, NCI-H1651;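 further: Read-out is a cell viability assay, with IC50 expressing inhibition of NCI-H1651 cell growth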
# Description: SANGER: Inhibition of human NCI-H1651 cell growth in a cell viability assay.
# NCI-H596 = type: functional, cell-based, Homo sapiens; conditions: Homo sapiens, NCI-H596;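 further: growth inhibition of NCI-H596 cells, read out with a cell viability assay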
# Description: SANGER: Inhibition of human NCI-H596 cell growth in a cell viability assay.
# NCI-H661 = type: functional, cell-based, Homo sapiens; conditions: Homo sapiens, NCI-H661;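 further: cell viability assay read-out, IC50 being the concentration that inhibits growth of the cells by half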
# Description: SANGER: Inhibition of human NCI-H661 cell growth in a cell viability assay.
# RPMI-8866 = type: functional, cell-based; conditions: Homo sapiens
# Description: SANGER: Inhibition of human RPMI-8866 cell growth in a cell viability assay.
# TK-10 = type: functional, cell-based, Homo sapiens; conditions: Homo sapiens, TK-10;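 further: growth inhibition of TK-10 cells, read out in a cell viability assay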
# Description: SANGER: Inhibition of human TK10 cell growth in a cell viability assay.
# HuCCT-1 = type: functional, cell-based, Homo sapiens, HuCCT1; conditions: Homo sapiens, HuCCT-1;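 further: growth inhibition of HuCCT-1 cells, read out by a cell viability assay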
# Description: SANGER: Inhibition of human HuCCT1 cell growth in a cell viability assay.
# HCC1395 = type: functional, cell-based, Homo sapiens; conditions: Homo sapiens, HCC1395;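 further: growth inhibition of HCC1395 cells, read out by a cell viability assay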
# Description: SANGER: Inhibition of human HCC1395 cell growth in a cell viability assay.
# 5637 = type: functional, cell-based, Homo sapiens; conditions: Homo sapiens
# Description: SANGER: Inhibition of human 5637 cell growth in a cell viability assay.
# HCC1187 = type: functional, cell-based, Homo sapiens; conditions: Homo sapiens, HCC1187;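 further: growth inhibition of HCC1187 cells, read out with a cell viability assay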
# Description: SANGER: Inhibition of human HCC1187 cell growth in a cell viability assay.
# MPP-89 = type: functional, cell-based, Homo sapiens; conditions: Homo sapiens, MPP-89;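 further: growth inhibition of human MPP-89 cells, read out with a cell viability assay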
# Description: SANGER: Inhibition of human MPP-89 cell growth in a cell viability assay.
# KG-1 = type: functional, cell-based; conditions: Homo sapiens;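 further: growth inhibition of KG-1 cells, read out by a cell viability assay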
# Description: SANGER: Inhibition of human KG-1 cell growth in a cell viability assay.
# CTB-1 = type: functional, cell-based; conditions: Homo sapiens
# Description: SANGER: Inhibition of human CTB-1 cell growth in a cell viability assay.
# P12-Ichikawa = type: functional, cell-based; conditions: Homo sapiens
# MDA-MB-157 = type: functional, cell-based, Homo sapiens; conditions: Homo sapiens, MDA-MB-157
# Description: SANGER: Inhibition of human MDA-MB-157 cell growth in a cell viability assay.
# 8-MG-BA = type: functional, cell-based, Homo sapiens; conditions: Homo sapiens, 8-MG-BA;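 further: growth inhibition of 8-MG-BA cells, read out with a cell viability assay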
# Description: SANGER: Inhibition of human 8-MG-BA cell growth in a cell viability assay.
# SK-MEL-24 = type: functional, cell-based; conditions: Homo sapiens;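 further: growth inhibition read out by a cell viability assay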
# Description: SANGER: Inhibition of human SK-MEL-24 cell growth in a cell viability assay.
# HuTu80 = type: functional, cell-based, Homo sapiens, HUTU-80; conditions: Homo sapiens, HuTu80;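 further: growth inhibition of HuTu80 human cells, determined with a cell viability readout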
# Description: SANGER: Inhibition of human HUTU-80 cell growth in a cell viability assay.
# T-24 = type: functional, cell-based, Homo sapiens; conditions: Homo sapiens, T-24;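 further: growth inhibition of T-24 cells, read out with a cell viability assay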
# Description: SANGER: Inhibition of human T-24 cell growth in a cell viability assay.
# KU812 cell line = type: functional, cell-based; conditions: Homo sapiens;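 further: growth inhibition of KU812 cells, read out with a cell viability assay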
# Description: SANGER: Inhibition of human KU812 cell growth in a cell viability assay.
# OAW-42 = type: functional, cell-based, Homo sapiens; conditions: Homo sapiens, OAW-42;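 further: growth inhibition of OAW-42 cells, read out with a cell viability assay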
# Description: SANGER: Inhibition of human OAW-42 cell growth in a cell viability assay.
# HL-60 = type: functional, cell-based; conditions: Homo sapiens;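 further: growth inhibition of human HL-60 cells, read out with a cell viability assay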
# Description: SANGER: Inhibition of human HL-60 cell growth in a cell viability assay.
# IGROV-1 = type: functional, cell-based, Homo sapiens; conditions: Homo sapiens, IGROV-1;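 further: reduction of IGROV-1 cell growth, read out with a viability assay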
# Description: SANGER: Inhibition of human IGROV-1 cell growth in a cell viability assay.
# HT-144 = type: functional, cell-based, Homo sapiens; conditions: Homo sapiens, HT-144
# Description: SANGER: Inhibition of human HT-144 cell growth in a cell viability assay.
# SKG-IIIa = type: functional, cell-based, Homo sapiens; conditions: Homo sapiens, SKG-IIIa;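 further: cell growth inhibition, read out with a cell viability assay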
# Description: SANGER: Inhibition of human SKG-IIIa cell growth in a cell viability assay.
# BXPC-3 = type: functional, cell-based, Homo sapiens; conditions: Homo sapiens, BXPC-3;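 further: growth inhibition of human BxPC-3 cells, read out by a cell viability assay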
# Description: SANGER: Inhibition of human BxPC-3 cell growth in a cell viability assay.
# NCI-H1755 = type: functional, cell-based, Homo sapiens; conditions: Homo sapiens, NCI-H1755;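 further: cell viability readout used to measure growth inhibition of NCI-H1755 cells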
# Description: SANGER: Inhibition of human NCI-H1755 cell growth in a cell viability assay.
# IA-LM = type: functional, cell-based, Homo sapiens; conditions: Homo sapiens, IA-LM;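 further: cell viability assay measuring growth inhibition of human IA-LM cells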
# Description: SANGER: Inhibition of human IA-LM cell growth in a cell viability assay.
# NCI-H2347 = type: functional, cell-based, Homo sapiens; conditions: Homo sapiens, NCI-H2347;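 further: growth inhibition of the cell line, read out with a cell viability assay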
# Description: SANGER: Inhibition of human NCI-H2347 cell growth in a cell viability assay.
# MHH-PREB-1 = type: functional, cell-based; conditions: Homo sapiens;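 further: cell viability assay measuring inhibition of proliferation of human MHH-PREB-1 cells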
# Description: SANGER: Inhibition of human MHH-PREB-1 cell growth in a cell viability assay.
# BFTC-905 = type: functional, cell-based, Homo sapiens; conditions: Homo sapiens, BFTC-905
# Description: SANGER: Inhibition of human BFTC-905 cell growth in a cell viability assay.
# SNU-387 = type: functional, cell-based, Homo sapiens; conditions: Homo sapiens, SNU-387
# Description: SANGER: Inhibition of human SNU-387 cell growth in a cell viability assay.
# A 172 = type: functional, cell-based, Homo sapiens; conditions: Homo sapiens, A 172;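 further: growth inhibition of A172 cells, measured with a cell viability readout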
# Description: SANGER: Inhibition of human A172 cell growth in a cell viability assay.
# TE-10 = type: functional, cell-based, Homo sapiens; conditions: Homo sapiens, TE-10;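 further: growth inhibition of TE-10 cells, measured by a cell viability assay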
# Description: SANGER: Inhibition of human TE-10 cell growth in a cell viability assay.
# CP50-MEL-B = type: functional, cell-based, Homo sapiens; conditions: Homo sapiens, CP50-MEL-B;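 further: growth inhibition of the human cell line, measured with a cell viability read-out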
# Description: SANGER: Inhibition of human CP50-MEL-B cell growth in a cell viability assay.
# JEG-3 = type: functional, cell-based, Homo sapiens; conditions: Homo sapiens, JEG-3;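 further: growth inhibition of human JEG-3 cells, read out with a cell viability assay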
# Description: SANGER: Inhibition of human JEG-3 cell growth in a cell viability assay.
# HCE-4 = type: functional, cell-based, Homo sapiens; conditions: Homo sapiens, HCE-4;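 further: cell viability assay measuring inhibition of growth in the human HCE-4 cell line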
# Description: SANGER: Inhibition of human HCE-4 cell growth in a cell viability assay.
# GAK = type: functional, cell-based, Homo sapiens; conditions: Homo sapiens, GAK;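 further: cell growth inhibition read out by a cell viability assay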
# Description: SANGER: Inhibition of human GAK cell growth in a cell viability assay.
# K5 = type: functional, cell-based, Homo sapiens; conditions: Homo sapiens, K5
# Description: SANGER: Inhibition of human K5 cell growth in a cell viability assay.
# SCC-25 = type: functional, cell-based, Homo sapiens; conditions: Homo sapiens, SCC-25;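 further: growth inhibition of SCC-25 cells, measured with a cell viability assay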
# Description: SANGER: Inhibition of human SCC-25 cell growth in a cell viability assay.
# BB30-HNC = type: functional, cell-based, Homo sapiens; conditions: Homo sapiens, BB30-HNC;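 further: growth inhibition of the cultured cell line, read out by a cell viability assay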
# Description: SANGER: Inhibition of human BB30-HNC cell growth in a cell viability assay.
# NCI-H720 = type: functional, cell-based; conditions: Homo sapiens;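 further: growth inhibition of human NCI-H720 cells determined by a cell viability assay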
# Description: SANGER: Inhibition of human NCI-H720 cell growth in a cell viability assay.
# GI-1 = type: functional, cell-based, Homo sapiens; conditions: Homo sapiens, GI-1;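 further: growth inhibition of human GI-1 cells, measured with a cell viability readout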
# Description: SANGER: Inhibition of human GI-1 cell growth in a cell viability assay.
# HOS = type: functional, cell-based, Homo sapiens; conditions: Homo sapiens, HOS;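 further: growth inhibition of human HOS cells, read out with a cell viability assay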
# Description: SANGER: Inhibition of human HOS cell growth in a cell viability assay.
# NCI-H23 = type: functional, cell-based, Homo sapiens; conditions: Homo sapiens, NCI-H23
# Description: SANGER: Inhibition of human NCI-H23 cell growth in a cell viability assay.
# NCI-H747 = type: functional, cell-based; conditions: Homo sapiens;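 further: growth inhibition of human NCI-H747 cells, read out by a cell viability assay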
# Description: SANGER: Inhibition of human NCI-H747 cell growth in a cell viability assay.
# D-263MG = type: functional, cell-based, Homo sapiens; conditions: Homo sapiens, D-263MG
# Description: SANGER: Inhibition of human D-263MG cell growth in a cell viability assay.
# CHL-1 = type: functional, cell-based, Homo sapiens; conditions: Homo sapiens, CHL-1;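 further: cell growth inhibition, read out with a cell viability assay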
# Description: SANGER: Inhibition of human CHL-1 cell growth in a cell viability assay.
smiles,measurement,setting,value
CCC1=C[C@@H]2CN(C1)Cc1c([nH]c3ccccc13)[C@@](C(=O)OC)(c1cc3c(cc1OC)N(C)[C@H]1[C@@](O)(C(=O)OC)[C@H](OC(C)=O)[C@]4(CC)C=CCN5CC[C@]31[C@@H]54)C2 [VINORELBINE],IC50,CAL-72,> 64 nM
same,IC50,NCI-H2052,61 nM
same,IC50,SBC-5,2.08 nM
same,IC50,ONS-76,3.3 nM
same,IC50,NCI-H1651,60.6 nM
same,IC50,NCI-H596,> 64 nM
same,IC50,NCI-H661,20.4 nM
same,IC50,RPMI-8866,7 nM
same,IC50,TK-10,> 64 nM
same,IC50,HuCCT-1,2.78 nM
same,IC50,HCC1395,15.9 nM
same,IC50,5637,7.55 nM
same,IC50,HCC1187,13.9 nM
same,IC50,MPP-89,> 64 nM
same,IC50,KG-1,> 64 nM
same,IC50,CTB-1,19.8 nM
same,IC50,P12-Ichikawa,25.2 nM
same,IC50,MDA-MB-157,> 64 nM
same,IC50,8-MG-BA,3.37 nM
same,IC50,SK-MEL-24,> 64 nM
same,IC50,HuTu80,2.18 nM
same,IC50,T-24,> 64 nM
same,IC50,KU812 cell line,9.3 nM
same,IC50,OAW-42,42.5 nM
same,IC50,HL-60,> 64 nM
same,IC50,IGROV-1,2.2 nM
same,IC50,HT-144,0.591 nM
same,IC50,SKG-IIIa,> 64 nM
same,IC50,BXPC-3,3.9 nM
same,IC50,NCI-H1755,17.4 nM
same,IC50,IA-LM,3.71 nM
same,IC50,NCI-H2347,26.1 nM
same,IC50,MHH-PREB-1,6.88 nM
same,IC50,BFTC-905,3.62 nM
same,IC50,SNU-387,10.2 nM
same,IC50,A 172,13.9 nM
same,IC50,TE-10,3.62 nM
same,IC50,CP50-MEL-B,43.4 nM
same,IC50,JEG-3,14.1 nM
same,IC50,HCE-4,20.8 nM
same,IC50,GAK,> 64 nM
same,IC50,K5,41.9 nM
same,IC50,SCC-25,12.5 nM
same,IC50,BB30-HNC,0.399 nM
same,IC50,NCI-H720,> 64 nM
same,IC50,GI-1,3.54 nM
same,IC50,HOS,3.22 nM
same,IC50,NCI-H23,60.1 nM
same,IC50,NCI-H747,> 64 nM
same,IC50,D-263MG,> 64 nM
same,IC50,CHL-1,4.6 nM
COc1cc([C@@H]2c3cc4c(cc3[C@@H](O[C@@H]3O[C@@H]5CO[C@@H](C)O[C@H]5[C@H](O)[C@H]3O)[C@H]3COC(=O)[C@H]23)OCO4)cc(OC)c1O [ETOPOSIDE],IC50,CAL-72,> 16000 nM
same,IC50,NCI-H2052,11500 nM
same,IC50,SBC-5,303 nM
same,IC50,ONS-76,754 nM
same,IC50,NCI-H1651,> 16000 nM
same,IC50,NCI-H596,> 16000 nM
same,IC50,NCI-H661,4340 nM
same,IC50,RPMI-8866,4650 nM
same,IC50,TK-10,7490 nM
same,IC50,HuCCT-1,1910 nM
same,IC50,HCC1395,> 16000 nM
same,IC50,5637,867 nM
same,IC50,HCC1187,> 16000 nM
same,IC50,MPP-89,> 16000 nM
same,IC50,KG-1,9720 nM
same,IC50,CTB-1,1690 nM
same,IC50,P12-Ichikawa,317 nM
same,IC50,MDA-MB-157,12600 nM
same,IC50,8-MG-BA,46.9 nM
same,IC50,SK-MEL-24,> 16000 nM
same,IC50,HuTu80,217 nM
same,IC50,T-24,> 16000 nM
same,IC50,KU812 cell line,2030 nM
same,IC50,OAW-42,6060 nM
same,IC50,HL-60,2290 nM
same,IC50,IGROV-1,171 nM
same,IC50,HT-144,20.1 nM
same,IC50,SKG-IIIa,> 16000 nM
same,IC50,BXPC-3,> 16000 nM
same,IC50,NCI-H1755,> 16000 nM
same,IC50,IA-LM,3440 nM
same,IC50,NCI-H2347,9660 nM
same,IC50,MHH-PREB-1,> 16000 nM
same,IC50,BFTC-905,426 nM
same,IC50,SNU-387,> 16000 nM
same,IC50,A 172,8650 nM
same,IC50,TE-10,2380 nM
same,IC50,CP50-MEL-B,> 16000 nM
same,IC50,JEG-3,3040 nM
same,IC50,HCE-4,801 nM
same,IC50,GAK,> 16000 nM
same,IC50,K5,> 16000 nM
same,IC50,SCC-25,6630 nM
same,IC50,BB30-HNC,64.2 nM
same,IC50,NCI-H720,> 16000 nM
same,IC50,GI-1,713 nM
same,IC50,HOS,474 nM
same,IC50,NCI-H23,13200 nM
same,IC50,NCI-H747,> 16000 nM
same,IC50,D-263MG,> 16000 nM
same,IC50,CHL-1,883 nM

# Source: ChEMBL document CHEMBL1201861, “Genomics of Drug Sensitity in Cancer screening data, Wellcome Trust Sanger Institute”
